Experimental data taken from patent publication US12491252B2, “Substituted 3-amino-5-phenylbenzamide compounds as covalent inhibitors of enhancer zeste homolog 2 (EZH2) and proteolysis-targeting chimeric derivatives thereof (PROTACs) that induce degradation of EZH2” (Northwestern University, priority 2021, dated 2025).
Where two headings read alike, the source gives them in different places.

What was measured:
EZH2 [1] = target: T1, EZH2 (Homo sapiens, UniProt Q15910); experiment: Ubiquitination of EZH2 in C4-2B cells with MG132; type: cell-based; conditions: FIG. 15B, plus proteasome inhibitor MG132
T1 sequence (Q15910 whole entry): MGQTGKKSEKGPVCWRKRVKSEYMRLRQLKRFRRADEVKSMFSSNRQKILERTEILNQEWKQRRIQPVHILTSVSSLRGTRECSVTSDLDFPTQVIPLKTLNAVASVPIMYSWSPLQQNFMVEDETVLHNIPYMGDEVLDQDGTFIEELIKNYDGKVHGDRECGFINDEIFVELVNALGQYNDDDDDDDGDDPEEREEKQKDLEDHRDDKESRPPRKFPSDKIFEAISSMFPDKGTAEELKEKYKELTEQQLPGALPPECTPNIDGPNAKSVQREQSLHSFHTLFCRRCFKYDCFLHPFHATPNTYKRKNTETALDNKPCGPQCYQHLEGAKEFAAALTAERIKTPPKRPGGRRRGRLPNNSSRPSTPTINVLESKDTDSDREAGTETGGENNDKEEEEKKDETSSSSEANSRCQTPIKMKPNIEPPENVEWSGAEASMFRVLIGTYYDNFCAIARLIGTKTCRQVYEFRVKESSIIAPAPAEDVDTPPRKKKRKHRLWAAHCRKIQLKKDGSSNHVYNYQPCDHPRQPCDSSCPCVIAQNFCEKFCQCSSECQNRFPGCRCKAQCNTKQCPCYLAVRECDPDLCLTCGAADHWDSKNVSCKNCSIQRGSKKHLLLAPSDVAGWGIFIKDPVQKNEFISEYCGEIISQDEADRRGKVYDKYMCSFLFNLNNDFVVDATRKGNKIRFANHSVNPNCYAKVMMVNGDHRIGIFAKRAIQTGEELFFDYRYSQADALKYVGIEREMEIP
T1 sequence (Q15022 whole entry partner): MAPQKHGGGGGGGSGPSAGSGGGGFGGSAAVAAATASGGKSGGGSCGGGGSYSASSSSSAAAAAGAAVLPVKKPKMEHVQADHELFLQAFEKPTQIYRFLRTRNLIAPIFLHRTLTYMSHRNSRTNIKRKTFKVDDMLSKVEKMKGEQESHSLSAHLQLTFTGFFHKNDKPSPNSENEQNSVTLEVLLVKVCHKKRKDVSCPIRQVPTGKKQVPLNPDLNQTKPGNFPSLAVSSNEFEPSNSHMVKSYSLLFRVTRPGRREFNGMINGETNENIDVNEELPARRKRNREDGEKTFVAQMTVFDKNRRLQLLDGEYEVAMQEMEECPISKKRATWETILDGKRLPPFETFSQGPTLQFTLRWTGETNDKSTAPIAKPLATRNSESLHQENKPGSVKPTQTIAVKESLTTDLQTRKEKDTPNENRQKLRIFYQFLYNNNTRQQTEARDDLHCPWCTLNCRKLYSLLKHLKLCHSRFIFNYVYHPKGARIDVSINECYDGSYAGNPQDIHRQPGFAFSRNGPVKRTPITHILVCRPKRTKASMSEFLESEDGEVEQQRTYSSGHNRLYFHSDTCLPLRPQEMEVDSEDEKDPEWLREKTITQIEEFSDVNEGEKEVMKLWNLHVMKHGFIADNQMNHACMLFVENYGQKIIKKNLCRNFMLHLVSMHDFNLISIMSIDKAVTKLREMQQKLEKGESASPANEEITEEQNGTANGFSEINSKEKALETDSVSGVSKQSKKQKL
T1 sequence (O75530 whole entry partner): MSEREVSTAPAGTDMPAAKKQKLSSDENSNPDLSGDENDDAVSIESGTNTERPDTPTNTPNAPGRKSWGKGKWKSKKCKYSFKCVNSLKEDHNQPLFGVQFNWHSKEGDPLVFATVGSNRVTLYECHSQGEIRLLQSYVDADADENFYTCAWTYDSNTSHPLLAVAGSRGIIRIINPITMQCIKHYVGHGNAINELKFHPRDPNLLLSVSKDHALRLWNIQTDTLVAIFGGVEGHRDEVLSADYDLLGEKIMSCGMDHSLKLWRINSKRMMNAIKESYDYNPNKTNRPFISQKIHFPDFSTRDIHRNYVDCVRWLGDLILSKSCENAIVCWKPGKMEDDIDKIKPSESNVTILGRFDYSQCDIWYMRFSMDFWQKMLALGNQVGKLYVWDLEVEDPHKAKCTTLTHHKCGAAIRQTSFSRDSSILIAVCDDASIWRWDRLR

LNCaP cells [2] = experiment: Colony assay using LnCaP cells; type: cell-based; conditions: FIG. 17B, treatment for 7 days
Protocol: (§1) FIG. 17A-17B. (FIG. 17A) Live imaging cell proliferation of LNCaP cells. Cells were treated with indicated compounds and monitored over 168 hours for proliferation by phase object confluence. DMSO is set as the negative control. […] (FIG. 17B) Colony assays using LnCaP cells after treatment with the indicated compounds for 7 days.

SUZ12 [3] = experiment: Western blot of SUZ12 in C4-2B cells; type: cell-based; conditions: FIG. 14, 10 μM for 6 days
EZH2 [4] = target: T1, EZH2; experiment: Western blot of EZH2 with esiRNA knockdown of VHL or siRNA control; type: cell-based; conditions: FIG. 16, duplicate
Protocol: FIG. 16. Cells were treated with indicated compounds with either esiRNA knockdown of VHL or siRNA control (no EZH2 knockdown) and blotted for EZH2 and VHL. […] Experiment was run in duplicate with both replicates shown on the left and right sides.

EZH2 [5] = target: T1, EZH2; experiment: Western blot of EZH2 protein in PC3 cells; conditions: FIG. 26, 6 days treatment
Source text: (Upper right western blot) Western blot analysis of EZH2 protein in PC3 cells after 6 days treatment.

SU-DHL6 cells = experiment: WST cell viability assay in SU-DHL6 cells; type: cell-based
Protocol: (§2) Cell proliferation was measured using WST-1 Kit (Clontech) according to manufacturer's protocol.

[6] = test system: prostate cancer cell lines; experiment: WST-1 cell proliferation in multiple prostate cancer cell lines; type: cell-based; conditions: WST-1 Kit
Protocol: as §2

C4-2B cells [7] = experiment: Imaging of C4-2B cells (cell density); type: cell-based; conditions: FIG. 21, 12 days' treatment
Source text: FIG. 21. Imaging of C4-2B cells after 12 days' treatment with the indicated compounds.

LNCaP cells [8] = experiment: WST cell proliferation/viability assay in LNCaP cells; type: cell-based
Protocol: FIG. 19A-19B. (FIG. 19A) WST cell proliferation assay of indicated compounds in LNCaP cells. […] (FIG. 19B) Effects of indicated compounds on EZH2, AR, and FOXA1 by western blot at 1 μM in LNCaP cells.
as §2

C4-2B cells [9] = experiment: Colony assay using C4-2B cells; type: cell-based; conditions: FIG. 20B, treatment for 7 days
Protocol: as §1, with “20A-20B.” for “17A-17B.”, “20A)” for “17A)”, “C4-2B” for “LNCaP”, “20B)” for “17B)”, “C4-2B” for “LnCaP”

H3K27me3 = experiment: Western blot of H3K27me3 levels in C4-2B cells; type: cell-based; conditions: FIG. 14, 10 μM for 6 days
22Rv1 cells [10] = experiment: Cell titer glo cell viability assay in 22Rv1 cells; type: cell-based
lymphoma cell lines = experiment: WST-1 cell proliferation in multiple lymphoma cell lines; type: cell-based; conditions: WST-1 Kit
Protocol: as §2

SUZ12 [11] = experiment: Western blot of SUZ12 in SU-DHL4 cells; type: cell-based; conditions: FIG. 33, 48 hours
Protocol: (§3) FIG. 33. […] Cell were treated for 48 hours with the indicated concentrations of compounds.

[12] = Pharmacokinetics in mice, IP cassette dosing, plasma LC/MS/MS; type: in vivo, C57Bl/6 mouse; conditions: mouse, C57Bl/6 mice, 4 mg/kg IP, cassette format
Protocol: FIG. 35. Pharmacokinetics of indicated compounds. Compounds were administered to C57Bl/6 mouse mice at 4 mg/kg using intraperitoneal (IP) injection in cassette format. Plasma was collected at the indicated time points and analyzed by LC/MS/MS using standard methods.
For assessing pharmacokinetics, compounds were administered to C57Bl/6 mouse mice at 4 mg/kg using intraperitoneal (IP) injection in cassette format. Plasma was collected at the indicated time points and analyzed by LC/MS/MS using standard methods.

SU-DHL4 cells = experiment: WST cell viability assay in SU-DHL4 cells; type: cell-based; conditions: for IC50: Homo sapiens, variable slope, read-out: IC50 (best-fit value)
Protocol: as §2

EZH2 [13] = target: T1, EZH2; experiment: Western blot of EZH2 protein in C4-2B cells
C4-2B cells [14] = experiment: Live imaging cell proliferation of C4-2B cells; type: cell-based; conditions: FIG. 20A, monitored over 168 hours
Source text: FIG. 20A-20B. (FIG. 20A) Live imaging cell proliferation of C4-2B cells. […] DMSO is set as the negative control. […] (FIG. 20B) Colony assays using C4-2B cells after treatment with the indicated compounds for 7 days.

EED [15] = experiment: Western blot of EED in SU-DHL6 cells; type: cell-based; conditions: FIG. 33, 48 hours
Protocol: as §3

C4-2B cells [16] = experiment: WST cell proliferation assay in C4-2B cells; type: cell-based; conditions: FIG. 22, 6 days
Protocol: FIG. 22A-22B. WST cell proliferation assay of indicated compounds in C4-2B cells. Cells were treated for 6 days. […] (FIG. 19B) Effects of indicated compounds on EZH2, AR, and FOXA1 by western blot at 1 μM in C4-2B cells.
as §2

22Rv1 cells [17] = experiment: WST cell viability assay in 22Rv1 cells; type: cell-based
Protocol: as §2

EED [18] = experiment: Western blot of EED in SU-DHL4 cells; type: cell-based; conditions: FIG. 33, 48 hours
Protocol: as §3

LNCaP cells [19] = experiment: Imaging of LnCaP cells (cell density); type: cell-based; conditions: FIG. 18, 12 days' treatment
Source text: FIG. 18. Imaging of LnCaP cells after 12 days' treatment with the indicated compounds.

SUZ12 [20] = experiment: Western blot of SUZ12 in SU-DHL6 cells; type: cell-based; conditions: FIG. 33, 48 hours
Protocol: as §3

EZH2 [21] = target: T1, EZH2; experiment: Western blot of EZH2 protein in DU-145 cells; conditions: FIG. 27, 6 days treatment
Source text: (Upper right western blot) Western blot analysis of EZH2 protein in DU-145 cells after 6 days treatment.

EZH2 [22] = experiment: Western blot of EZH2 in SU-DHL4 cells; type: cell-based; conditions: FIG. 33, 48 hours
EZH2 [23] = experiment: Western blot of EZH2 in SU-DHL6 cells; type: cell-based; conditions: FIG. 33, 48 hours
LNCaP cells [24] = experiment: Live imaging cell proliferation of LNCaP cells; type: cell-based; conditions: FIG. 17A, monitored over 168 hours
Source text: FIG. 17A-17B. (FIG. 17A) Live imaging cell proliferation of LNCaP cells. […] DMSO is set as the negative control. […] (FIG. 17B) Colony assays using LnCaP cells after treatment with the indicated compounds for 7 days.

[25] = Table 9, WST1 within 1 μM on SU-DHL4 (as titled)

Ability to degrade EZH2 with siRNA control (VHL present) (EZH2 [4]; siRNA control lane): able to strongly degrade EZH2
EZH2 protein (western blot) (EZH2 [5]): significant reduction in EZH2
IC50 (SU-DHL6 cells; Homo sapiens, SU-DHL-6, Table 7, WST1 test cell viability with higher dose on SU-DHL6, variable slope, read-out: IC50 (best-fit value)): 892 nM
IC50 (22Rv1 cells [10]; Homo sapiens, Table 5, Cell titer glo test cell viability with different doses on 22Rv1, read-out: IC50 (best-fit value)): 692 nM
half-life [12]: 3.5 to 6 h
IC50 (SU-DHL4 cells; SU-DHL-4, Table 8, WST1 test cell viability within 1 μM on SU-DHL4): 2500 nM
IC50 (SU-DHL4 cells; SU-DHL-4, Table 9, WST1 test cell viability within 1 μM on SU-DHL4 (as titled)): 337 nM
Degrading EZH2 protein at nM doses, versus 2304 (EZH2 [13]; FIG. 10, 24 hours): more effective than 2304
Degradation of EZH2 (EZH2 [13]; FIG. 14, 10 μM for 6 days): strong degradation of EZH2
IC50 (22Rv1 cells [17]; Homo sapiens, Table 4, WST1 cell viability with different doses on 22Rv1, read-out: IC50 (best-fit value)): 1340 nM
EZH2 protein (western blot) (EZH2 [21]): significant reduction in EZH2
SMILES: CCN(c1cc(-c2ccc(CN3CCN(C(=O)CCCCCCCCCC(=O)N[C@H](C(=O)N4C[C@H](O)C[C@H]4C(=O)NCc4ccc(-c5scnc5C)cc4)C(C)(C)C)CC3)cc2)cc(C(=O)NCc2c(C)cc(C)[nH]c2=O)c1C)C1CCOCC1 [Compound 6272]
Degree of ubiquitination of EZH2 (EZH2 [1]): much greater degree of ubiquitination of EZH2 than the inactive compound 6286
Colonies (LNCaP cells [2]): significant reduction in the colonies
Reduction of PRC2 component SUZ12 (SUZ12 [3]): reduction of PRC2 component SUZ12
Ability to degrade EZH2 with esiRNA knockdown of VHL (EZH2 [4]; VHL knockdown): inhibition of the ability of active compounds 6272 to degrade EZH2
Anti-proliferative effect (WST cell viability) (SU-DHL6 cells; FIG. 30, SU-DHL6, 4 days' treatment): greater anti-proliferative effect than EPZ-6438
Anti-proliferative effect (WST cell viability) at 1 μM (SU-DHL6 cells; FIG. 32, SU-DHL6, 4 days' treatment, 1 μM): greater anti-proliferative effect than EPZ-6438
Inhibition of cell proliferation versus EPZ-6438 [6]: more potent and effective at inhibiting cell proliferation than the catalytic EZH2 inhibitor EPZ-6438
Cell density by imaging (C4-2B cells [7]): significant reduction in the cell density
Inhibition of proliferation (WST) (LNCaP cells [8]; FIG. 19A, LNCaP, 6 days): similarly potent effects on inhibiting the proliferation
Anti-proliferative effect (WST cell viability) (LNCaP cells [8]; FIG. 23, LNCaP, 5 days' treatment, concentration range): greater anti-proliferative effect than EPZ-6438
IC50 (LNCaP cells [8]; Homo sapiens, Table 3, WST1 test cell viability on LNCaP, [Inhibitor] vs. normalized response, read-out: IC50 (best-fit value)): 758 nM
Colonies (C4-2B cells [9]): significant reduction in the colonies
H3K27me3 levels (H3K27me3): reduced H3K27me3 levels
Anti-proliferative effect (Cell titer glo cell viability) (22Rv1 cells [10]; FIG. 25, 22Rv1, 5 days' treatment, concentration range): greater anti-proliferative effect than EPZ-6438
Inhibition of cell proliferation versus EPZ-6438 (lymphoma cell lines): more potent and effective at inhibiting cell proliferation than the catalytic EZH2 inhibitor EPZ-6438
Degradation of SUZ12 (SUZ12 [11]): significant degradation
Anti-proliferative effect (WST cell viability) (SU-DHL4 cells; FIG. 29, SU-DHL4, 4 days' treatment): greater anti-proliferative effect than EPZ-6438
HillSlope (best-fit value) (SU-DHL4 cells; Table 6, WST1 with higher dose on SU-DHL4): −0.093
HillSlope (best-fit value) (SU-DHL4 cells; Table 8, WST1 within 1 μM on SU-DHL4): −0.2858
HillSlope (best-fit value) (SU-DHL4 cells; [25]): −1.235
logIC50 (best-fit value) (SU-DHL4 cells; [25]): −0.4722
Cell proliferation by phase object confluence (C4-2B cells [14]): decrease C4-2B proliferation
Degradation of EED (EED [15]): significant degradation
Inhibition of proliferation (WST) (C4-2B cells [16]): similarly potent effects on inhibiting the proliferation
Anti-proliferative effect (WST cell viability) (22Rv1 cells [17]; FIG. 24, 22Rv1, 5 days' treatment, concentration range): greater anti-proliferative effect than EPZ-6438
Degradation of EED (EED [18]): significant degradation
Cell density by imaging (LNCaP cells [19]): significant reduction in the cell density
Degradation of SUZ12 (SUZ12 [20]): significant degradation
Degradation of EZH2 (EZH2 [22]): significant degradation
Degradation of EZH2 (EZH2 [23]): significant degradation
Cell proliferation by phase object confluence (LNCaP cells [24]): greatest ability to decrease LnCaP proliferation
